Source: US12467917B2, “Reconstructing human early embryogenesis in vitro with pluripotent stem cells” (California Institute of Technology, priority 2021, dated 2025)

Key:
Type in all cases: cell-based, human
hEPSCs = test: Screening of growth factors and inhibitors in hEPSC 3D culture; settings: grown for 5 days without the named substance (condition 2 / condition 3)
Experimental: Next, various growth factors, cytokines, and small molecules were screened at widely adopted concentrations, to identify conditions facilitating cavity and early-lineage formation in these structures (FIG. 7A-FIG. 7E). […] Additionally, the cells were pulsed with the ALK5 kinase inhibitor A83-01 (2 μM) to promote TE differentiation for the first 48h of 3D culture, and this inhibitor was removed after this time to avoid a complete loss in pluripotency. Concomitantly, the concentration of FGF2 was decreased by half (20 ng/ml) for the same purpose. Using this optimized condition, the emergence of cavitated structures was observed, 3 to 4 days after cell seeding (FIG. 1D).
Post incubation on gelatin plates, cells were counted using a haemocytometer and a total of 7200 hEPSCs was added to 1 mL of media composed of 50% IVF media (Continuous Single Culture-NX Complete (CSCM-NXC)) (90168, FUJIFILM), 25% hEP media, and 25% hTS media. This media was also supplemented with CHIR99021 (2 μM), Y27632 (5 μM), BMP4 (20 ng/mL), FGF2 (40 ng/mL), and A83-01 (2 μM). Cell suspensions were added dropwise to the Aggrewells. All wells without cells were filled with 1 mL PBS to humidify the local atmosphere to minimize evaporation. The AggreWell plate (24-well, 1200 Aggrewell format) was then centrifuged for 3 min at 100 g, and placed at 37° C. under hypoxic conditions (5% CO2 and 5% O2). […]

hEPSC aggregates = test: PLC inhibition in hEPSC 3D cultures: immunofluorescence quantification of nuclear GATA3 and apical PARD6; settings: hEPSC 3D cultures treated with 2 μM and 3 μM, vs control without inhibitor
Experimental: The PLC-Protein Kinase C (PKC) pathway controls cellular polarisation at early stages of mouse embryo development. hEPSC 3D cultures were treated with 2 μM and 3 μM of the PLC inhibitor, U73122. […] To confirm the relationship between polarisation and outer cell commitment, siRNA transfection was used to knockdown (KD) PLCB1 in order to deplete PLC activity in cells during 3D aggregation (FIG. 2F). The depletion of PLC activity was confirmed by qRT-PCR to confirm that RNAi depletion of PLCB1 was effective (FIG. 8C).
Post incubation on gelatin plates, cells were counted using a haemocytometer and a total of 7200 hEPSCs was added to 1 mL of media composed of 50% IVF media (Continuous Single Culture-NX Complete (CSCM-NXC)) (90168, FUJIFILM), 25% hEP media, and 25% hTS media. This media was also supplemented with CHIR99021 (2 μM), Y27632 (5 μM), BMP4 (20 ng/mL), FGF2 (40 ng/mL), and A83-01 (2 μM). […]
Fluorescence images were acquired with an inverted Leica SP8 confocal microscope (Leica Microsystems), using a Leica Fluotar VISIR 0.95 NA 25× objective. […] Digital quantifications and immunofluorescence signal intensity graphs were obtained using Fiji software.
Apical enrichment analysis: F-actin and PARD6 polarisation were measured in a single focal plane, by taking the middle plane of the aggregate. […] The apical/basal signal intensity ratio was calculated as: I (apical)/I (basal). […]

hEP-structures = test: Frequency of cavitated structures in WNT3A-supplemented 3D culture; settings: day 6; WNT3A at 25 or 50 ng/mL added to culture media; vs control
Experimental: Post incubation on gelatin plates, cells were counted using a haemocytometer and a total of 7200 hEPSCs was added to 1 mL of media composed of 50% IVF media (Continuous Single Culture-NX Complete (CSCM-NXC)) (90168, FUJIFILM), 25% hEP media, and 25% hTS media. This media was also supplemented with CHIR99021 (2 μM), Y27632 (5 μM), BMP4 (20 ng/mL), FGF2 (40 ng/mL), and A83-01 (2 μM). Cell suspensions were added dropwise to the Aggrewells. All wells without cells were filled with 1 mL PBS to humidify the local atmosphere to minimize evaporation. The AggreWell plate (24-well, 1200 Aggrewell format) was then centrifuged for 3 min at 100 g, and placed at 37° C. under hypoxic conditions (5% CO2 and 5% O2). After 48h, media was removed from wells and replaced with fresh culture media as described above, although FGF2 concentration was lowered to 20 ng/ml and A83-01 was omitted. Cells were left to grow for an additional 48-72h until proper morphology was observed, at which point structures were fixed for immunostaining or transferred to IVC media (see below) for mimicking development beyond implantation stages.
Following completion of any given aggregation experiment (from day 4 to 6), all cystic structures clearly displaying a cavity were included in further analyses. Non-cavitated structures were excluded from downstream analyses.

Molecule: Cc1c[nH]c(-c2cnc(NCCNc3ccc(C#N)cn3)nc2-c2ccc(Cl)cc2Cl)n1 [CHIR99021]
- cell survival in media without the substance (hEPSCs): failure of cell survival

Molecule: COc1ccc2c(c1)CC[C@@H]1[C@@H]2CC[C@]2(C)[C@@H](NCCCCCCN3C(=O)C=CC3=O)CC[C@@H]12 [U73122]
- nuclear GATA3 signal intensity (hEPSC aggregates; normalized to DAPI): reduction
- apical enrichment of PARD6 (hEPSC aggregates): decrease

Molecule: C[C@@H](N)[C@H]1CC[C@H](C(=O)Nc2ccncc2)CC1.Cl.Cl [Y-27632, trans-4-[(R)-1-Aminoethyl]-N-4-pyridinylcyclohexanecarboxamide dihydrochloride]
- cell survival in media without the substance (hEPSCs): failure of cell survival

B1: WNT3A: Wnt3a recombinant protein, WNT signaling pathway activator added to the culture media (protein, UniProt P56704 19-352, looked up)
Protein Wnt-3a: SYPIWWSLAVGPQYSSLGSQPILCASIPGLVPKQLRFCRNYVEIMPSVAEGIKIGIQECQHQFRGRRWNCTTVHDSLAIFGPVLDKATRESAFVHAIASAGVAFAVTRSCAEGTAAICGCSSRHQGSPGKGWKWGGCSEDIEFGGMVSREFADARENRPDARSAMNRHNNEAGRQAIASHMHLKCKCHGLSGSCEVKTCWWSQPDFRAIGDFLKDKYDSASEMVVEKHRESRGWVETLRPRYTYFKVPTERDLVYYEASPNFCEPNPETGSFGTRDRTCNVSSHGIDGCDLLCCGRGHNARAERRREKCRCVFHWCCYVSCQECTRVYDVHTCK
- yield (frequency) of cavitated structures (hEP-structures): did not make any significant difference
